The values below come from ChEMBL document CHEMBL1132363, “Asymmetric synthesis and antiviral activities of L-carbocyclic 2', 3'-didehydro-2',3'-dideoxy and 2',3'-dideoxy nucleosides” (J Med Chem, 1999).

One experiment has as its system Vero. As to the kind of experiment: The compound was tested for the cytotoxicity against Vero cells. It counts as functional, cell-based. Conditions: Chlorocebus sabaeus.
Experiment [1] is filed under the species Homo sapiens. As to the kind of experiment: The compound was tested in vitro for the anti-HBV activity against 2.2.15 cells. Type of experiment: functional, cell-based. Conditions: HepG2 2.2.15.
For the next experiment, the system named is CCRF-CEM. Put plainly: The compound was tested for the cytotoxicity against CEM cells. It counts as functional, cell-based. Conditions: Homo sapiens.
The nature of experiment [2]: The compound was tested for the cytotoxicity against peripheral blood mononuclear (PBM)cells. Type of experiment: functional, cell-based. Conditions: Homo sapiens.
Experiment [3] in a line: The compound was tested in vitro for the anti-HIV activity against peripheral blood mononuclear (PBM)cells. Type of experiment: functional. Conditions: Homo sapiens.
A short description of experiment [4]: The compound was tested for the cytotoxicity against peripheral blood mononuclear (PBM) cells. It counts as functional, cell-based. Conditions: Homo sapiens.
A short description of experiment [5]: The compound was tested in vitro for the anti-HIV activity in peripheral blood mononuclear (PBM) cells. It counts as functional. Conditions: Homo sapiens.
For experiment [6], the species on record is Homo sapiens. As to the kind of experiment: The compound was tested in vitro for the anti-HBV activity in 2.2.15 cells. Type of experiment: functional, cell-based. Conditions: HepG2 2.2.15.

SMILES strings stand for the structures.

A word on the IC50: it is the midpoint of a concentration-inhibition curve. The low end stands for higher potency, the high end for lower potency. A word on the EC50: it is the concentration needed to bring the measured effect to its halfway point. A higher EC50 goes with a less potent agent. For `Nc1ncnc2c1ncn2[C@@H]1C=C[C@H](CO)C1`, the IC50 (with Vero; in the experiment on CCRF-CEM; in experiment [2]) was over 100 µM throughout. Further, the half-maximal effective concentration (EC50) in the experiment listed under Homo sapiens [1] came to 0.9 µM; in experiment [3] it was 2.4 µM.
As for `O=c1ccn(C2CCC(CO)C2)c(=O)[nH]1` (stereo not drawn), the concentration for half-maximal inhibition (IC50) (in the experiment on Vero; in the experiment with CCRF-CEM; in experiment [2]) was over 100 µM each time. For the same molecule, the EC50 in the experiment filed under Homo sapiens [1] is over 10 µM; in experiment [3], over 100 µM.
In the case of `O=c1ccn([C@@H]2C=C[C@H](CO)C2)c(=O)[nH]1`, the IC50 (with Vero; in the experiment on CCRF-CEM; in experiment [2]) was over 100 µM in each case. In addition, the 50% effective concentration (EC50) was over 10 µM in the experiment listed under Homo sapiens [1] and over 100 µM in experiment [3].
On to `OC[C@H]1C=C[C@@H](n2cnc3c(S)ncnc32)C1`, for which the IC50 (in experiment [4]; with Vero; in the experiment with CCRF-CEM) was over 100 µM each time. Further, the figures for the EC50 (in experiment [5]; in the experiment filed under Homo sapiens [6]) were over 100 µM and over 10 µM, respectively.
In the case of `Nc1ncnc2c1ncn2C1CCC(CO)C1` (stereo not drawn), the IC50 (in the experiment with Vero; in the experiment with CCRF-CEM; in experiment [2]) was over 100 µM each time. Further, the figures for the EC50 (in the experiment filed under Homo sapiens [1]; in experiment [3]) were over 50 µM and 27 µM, respectively.
The term EC90 denotes the concentration needed for an effect of 90%. Low values mean an effect from little substance, high ones a need for much substance. `Nc1ccn([C@@H]2C=C[C@H](CO)C2)c(=O)n1`: the concentration for half-maximal inhibition (IC50) (in the experiment with Vero; in the experiment with CCRF-CEM; in experiment [2]) was over 100 µM throughout. Besides, the concentration for a half-maximal effect (EC50) in the experiment listed under Homo sapiens [1] was over 10 µM; in experiment [3], 38.8 µM. The molecule also came in with an EC90 in experiment [3] of 65.9 µM.
Regarding `OC[C@H]1CC[C@@H](n2cnc3c(O)ncnc32)C1`, the half-inhibitory concentration (IC50) (with Vero; in the experiment with CCRF-CEM; in experiment [2]) was over 100 µM in each case. The 50% effective concentration (EC50) in experiment [5] is over 100 µM; in the experiment listed under Homo sapiens [6] it was over 10 µM.
Regarding `Cc1cn(C2CCC(CO)C2)c(=O)[nH]c1=O` (stereo not drawn), the IC50 with Vero is 171 µM; with CCRF-CEM, over 100 µM; in experiment [2] it was over 100 µM. Further, the half-maximal effective concentration (EC50) is over 10 µM in the experiment filed under Homo sapiens [1] and over 100 µM in experiment [3].
As to `OC[C@H]1C=C[C@@H](n2cnc3c(O)ncnc32)C1`, the IC50 (in the experiment with Vero; in the experiment on CCRF-CEM; in experiment [2]) was over 100 µM each time. Moreover, the EC50 is over 10 µM in the experiment filed under Homo sapiens [1] and over 100 µM in experiment [3].
For `Nc1nc(O)c2ncn([C@@H]3C=C[C@H](CO)C3)c2n1`, the EC50 (in the experiment listed under Homo sapiens [1]; in experiment [3]) was over 200 µM each time.
On to `COC1O[C@H]2[C@H](COC(C)(C)C)C[C@H](n3cnc4c(Cl)ncnc43)[C@H]2O1` (stereo partly drawn), for which the IC50 (with Vero; with CCRF-CEM; in experiment [2]) was over 100 µM each time. Also, the EC50 was over 10 µM in the experiment listed under Homo sapiens [1] and over 100 µM in experiment [3].
`Cc1cn([C@@H]2C=C[C@H](CO)C2)c(=O)[nH]c1=O`: the IC50 with Vero was 49.4 µM; in the experiment with CCRF-CEM, over 100 µM; in experiment [2] it was 66.6 µM. The values for the EC50 (in the experiment listed under Homo sapiens [1]; in experiment [3]) were over 10 µM and over 100 µM, respectively.
